Assay results from US20100016307A1, “NOVEL COMPOUNDS” (priority 2006, published 2010).

Key:
[1] = target: T1, c-Met/cFms chimeric receptor in c-Met/cFms/NIH3T3 cells (Homo sapiens, UniProt P08581); assay: Cell-based assay for c-Met autophosphorylation (ELISA); settings: compounds 1 h at 37° C., M-CSF (600 ng/ml) stimulation 10 min
T1 construct: The transmembrane/cytoplasmic domain fragment of c-Met (nucleotides 933 to 1390); expressed in transfected cells; the other entry of the earlier key: CSF1R (P07333, Macrophage colony-stimulating factor 1 receptor)
From the text: To generate a chimeric cDNA clone of c-Met with cFms, the extracellular domain of colony stimulating factor 1 receptor (CSF1R encoded by cFms gene) was fused with the transmembrane and cytoplasmic domain of c-Met. Reverse-transcribed RNA from human placenta was used as template to clone c-Met. The transmembrane/cytoplasmic domain fragment of c-Met (nucleotides 933 to 1390) containing a NotI site at both 5′- and 3′-end was generated by polymerase chain reaction (PCR) using following two oligonucleotides;
The resulting c-Met cDNA was cloned into pCR2.1-TOPO vector (c-Met/pCR2.1-TOPO). The extracellular domain fragment of cFms (nucleotides 1 to 512) containing BamHI site at 5′-end and NotI site at 3′-end was generated from human placenta cDNA by PCR using two oligonucleotides;
The resulting cFms cDNA was cloned into pcDNA3.1 vector (Invitrogen) using the BamHI and NotI sites (cFms/pcDNA3.1). To generate complete chimeric construct, the c-Met fragment (transmembrane and cytoplasmic domain) was digested with NotI sites (in c-Met/pCR2.1-TOPO vector) and then subcloned into cFms/pcDNA3.1 vector by NotI site (c-Met/cFms/pcDNA3.1).
NIH3T3 cells were grown in DMEM supplemented with 10% fetal bovine serum. NIH3T3 cells were transfected with c-Met/cFms/pcDNA3.1 vector alone using the calcium phosphate method according to the manufacturer's instructions. Three days after transfection, cells were selected with G418 (0.4 mgml^−1) for 14 days and the expression of c-Met chimeric receptor in the G418-resistant colonies of NIH3T3 (c-Met/cFms/NIH3T3) cells was analyzed by immunoblot. Autophosphorylation of c-Met induced by the stimulation with M-SCF, the ligand for CSF1R, was analyzed by immunoprecipitation and immunoblot, and prominent stable transfectant was selected for c-Met autophosphorylation assay. […]
c-Met/cFms/NIH3T3 cells were plated at 1×10^5 cells/well in collagen-coated 96-well microtitre plates and grown 24 h under standard culture conditions, followed by serum starvation for 1 h. The cells were incubated with compounds for 1 h at 37° C. and followed by M-CSF (600 ngml^−1) stimulation for 10 min at 37° C. The media was removed and the cells were lysed with 120 ul/well of lysis buffer (20 mM Tris-HCl pH8.0, 137 mM NaCl, 2 mM EDTA, 10% glycerol, 1% Triton X-100, 1 mM Na3VO4 and Protease Inhibitor Cocktail (Complete mini EDTA-free, Roche)). Then 100 ul/well of lysate was transferred to the antibody-coated (50 ng/well goat anti-cFms antibody in PBS) ELISA plate and incubated overnight at 4° C. Plates were washed five times with PBST (PBS containing 0.05% Tween-20). Primary antibody (biotin-conjugated anti-phosphotyrosine monoclonal antibody, PIERCE) was diluted 1:10,000 in PBST containing 1% BSA, added (100 ul/well) and incubated for 2 h at room temperature. After washing the plates five times with washing buffer, 100 ul/well of HRP-conjugated streptavidin (PIERCE) in PBST containing 1% BSA was added and incubated for 30 min at room temperature. After washing five times with PBST, 100 ul/well of SuperSignal ELISA Femto Substrate (PIERCE) was added and incubated for almost 1 min at room temperature. Chemiluminescence was measured using Wallac 1420 multilabel counter.
The IC50 was determined by using XLfit software (IDBS) with four-parameters, sigmoidal dose-response equation.

[2] = target: T2, human Met Kinase (His6-GST fusion, aa 956-1390) (Homo sapiens, UniProt P08581); assay: In vitro screen: kinase assay of purified Met kinase; type: biochemical; settings: purified Met 1 nM, 10 μM ATP, 1 μM peptide substrate, 1 hour at room temperature; read-out: pIC50 values at the c-Met receptor (in vitro screen results) (converted)
T2 construct: His6 (N); GST (Glutathione-S-Transferase) (N); made in house; host or cells: baculovirus expression system in Sf9 cells
Experimental: The peptide substrate, Biotin-aminohexyl-EEEEYFELVAKKKK-amide was purchased from SynPep Solid sample is dissolved at approximately 2.5 mM in water (concentration determined by amino acid analysis) and aliquots stored at −20° C.
Met Kinase: A fusion protein consisting of His6-tagged Glutathione-S-Transferase (GST) and amino acid residues 956-1390 of human Met Kinase (aa 956-1390 of Entrez Protein Accession # EAL24359.1 (met proto-oncogene (hepatocyte growth factor receptor) [Homo sapiens])) from “www.ncbi.nlm.nih.gov/entrez/”) is purified from baculovirus expression system in Sf9 cells using Ni chelate column, GSH column, followed by size exclusion chromatography. Purity greater than 90%, estimated by SDS-PAGE, is achieved. Samples in 25 mM HEPES pH 7.5, 100 mM NaCl, 0.1 mM EDTA are stored at −80° C. until use.
Assays are performed in 96 well (Costar, Catalog No. 3789) or 384 well plates (Costar, Catalog No. 3705). Assay conditions for the peptide phosphorylation reaction (in 10, 20, 25, or 40 μl volume) mix are 100 mM Hepes buffer, pH 7.4; 0.1 mgml^−1 BSA; 5 mM MgCl2; 1 mM DTT; 10 μM ATP; purified Met (1 nM final); and 1 μM peptide substrate. Compounds, titrated in DMSO, are evaluated at concentrations ranging from 50 μM to 0.2 nM. […] Reactions are incubated for 1 hour at room temperature and are stopped by addition of detection reagents containing, at final detection volume, 12.5 mM EDTA; 100 mM Hepes; 0.1 mg/ml BSA; 8 nM Streptavidin APC (Perkin Elmer catalog #CR130-150); 1 nM Europium-labelled anti-phosphotyrosine antibody (Perkin Elmer catalog #AD0067). Under the assay conditions defined above, the Km (apparent) for ATP is determined to be 40 μM.
The data for compound dose responses were plotted as % Inhibition, calculated with the data reduction formula 100*(1−[(U1−C2)/(C1−C2)]), versus concentration of compound, where U is the unknown value, C1 is the average control value obtained for DMSO, and C2 is the average control value obtained for 0.05M EDTA. Data were fitted to the curve described by: y=((Vmax*x)/(K+x)) where Vmax is the upper asymptote and K is the IC50. The results for each compound were recorded as pIC50 calculated as follows: pIC50=−Log 10(K).

T2 sequence (P08581 956-1390): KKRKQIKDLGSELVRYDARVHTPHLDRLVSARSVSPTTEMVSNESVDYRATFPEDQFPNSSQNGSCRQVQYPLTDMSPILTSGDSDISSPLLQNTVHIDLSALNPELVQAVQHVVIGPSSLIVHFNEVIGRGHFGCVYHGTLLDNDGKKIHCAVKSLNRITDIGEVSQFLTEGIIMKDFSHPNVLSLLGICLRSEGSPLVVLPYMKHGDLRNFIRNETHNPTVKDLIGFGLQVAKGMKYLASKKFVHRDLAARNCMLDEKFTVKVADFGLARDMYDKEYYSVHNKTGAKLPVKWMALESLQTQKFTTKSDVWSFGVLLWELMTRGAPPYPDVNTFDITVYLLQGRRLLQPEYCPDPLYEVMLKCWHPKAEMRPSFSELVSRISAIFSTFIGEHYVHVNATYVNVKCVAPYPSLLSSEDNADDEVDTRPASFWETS
T1 sequence (P08581 with tags, fused parts or gaps): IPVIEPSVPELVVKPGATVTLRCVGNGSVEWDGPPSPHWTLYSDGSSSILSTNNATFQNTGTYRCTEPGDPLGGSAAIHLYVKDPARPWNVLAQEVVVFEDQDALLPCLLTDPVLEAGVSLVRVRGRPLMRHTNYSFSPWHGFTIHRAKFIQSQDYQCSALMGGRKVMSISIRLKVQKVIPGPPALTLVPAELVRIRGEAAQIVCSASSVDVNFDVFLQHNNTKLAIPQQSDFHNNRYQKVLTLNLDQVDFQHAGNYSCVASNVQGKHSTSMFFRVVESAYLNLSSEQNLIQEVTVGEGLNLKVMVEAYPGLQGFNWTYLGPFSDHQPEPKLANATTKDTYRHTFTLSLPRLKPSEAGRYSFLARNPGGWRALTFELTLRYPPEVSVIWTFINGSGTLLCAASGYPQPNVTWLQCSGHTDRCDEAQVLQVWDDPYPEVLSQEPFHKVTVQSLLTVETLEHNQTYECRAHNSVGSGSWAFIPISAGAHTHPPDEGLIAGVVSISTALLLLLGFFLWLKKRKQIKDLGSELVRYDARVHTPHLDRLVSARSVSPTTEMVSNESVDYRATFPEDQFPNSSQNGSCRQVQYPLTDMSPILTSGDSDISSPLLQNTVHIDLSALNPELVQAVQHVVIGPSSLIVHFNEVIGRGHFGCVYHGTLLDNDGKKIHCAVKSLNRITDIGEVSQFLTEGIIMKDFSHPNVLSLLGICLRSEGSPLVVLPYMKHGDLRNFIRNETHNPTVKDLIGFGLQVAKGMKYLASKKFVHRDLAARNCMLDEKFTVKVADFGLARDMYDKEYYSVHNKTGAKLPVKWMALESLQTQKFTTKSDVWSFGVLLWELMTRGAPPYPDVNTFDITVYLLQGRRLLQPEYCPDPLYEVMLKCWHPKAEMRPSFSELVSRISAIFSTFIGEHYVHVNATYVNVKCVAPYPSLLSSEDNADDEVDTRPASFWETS

SMILES | IC50 [1] | IC50 [2]
O=C(Nc1ccccc1)C1(C(=O)Nc2ccc(Nc3ccnc4[nH]ccc34)cc2)CC1 [Example 16, N^1-Phenyl-N^1-[4-(1H-pyrrolo[2,3-b]pyridin-4-ylamino)phenyl]-1,1-cyclopropanedicarboxamide] | 3160 to 31600 nM | 100 to 1000 nM
CN(C)Cc1cccc(NC(=O)c2cc3c(Oc4ccc(NC(=O)C5(C(=O)Nc6ccc(F)cc6)CC5)cc4)ccnc3[nH]2)c1 [Example 14, N^1-[4-({2-[({3-[(Dimethylamino)methyl]phenyl}amino)carbonyl]-1H-pyrrolo[2,3-b]pyridin-4-yl}oxy)phenyl]-N^1-(4-fluorophenyl)-1,1-cyclopropane dicarboxamide] | 1000 to 3160 nM | < 10 nM
